A word on the IC50: it is the midpoint of a concentration-inhibition curve.

For the assay, the target named is T1, Recombinant human renin (Homo sapiens, UniProt P00797).
T1 construct: purchased Cayman 10006217
T1 sequence (P00797 67-406): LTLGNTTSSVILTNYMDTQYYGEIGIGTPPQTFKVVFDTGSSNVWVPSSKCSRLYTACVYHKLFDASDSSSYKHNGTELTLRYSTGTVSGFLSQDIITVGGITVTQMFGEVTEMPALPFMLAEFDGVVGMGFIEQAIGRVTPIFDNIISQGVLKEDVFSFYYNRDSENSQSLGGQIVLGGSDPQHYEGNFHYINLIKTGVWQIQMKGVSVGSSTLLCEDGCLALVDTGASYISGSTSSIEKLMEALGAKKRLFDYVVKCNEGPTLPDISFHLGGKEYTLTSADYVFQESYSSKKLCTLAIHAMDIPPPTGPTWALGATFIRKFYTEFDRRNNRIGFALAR
Description: Inhibition of renin (fluorogenic peptide substrate). The class given is biochemical. The note with it: recombinant human renin 5 nM, fluorogenic peptide substrate 10 μM, 2 h at room temperature, Tris buffer pH 8; compounds tested as the obtained salt. The procedure: Recombinant human renin (Cayman, no. 10006217) at a concentration of 5 nM was incubated with the test compounds at various concentrations and the synthetic substrate Dabcyl-γ-Abu-Ile-His-Pro-Phe-His-Leu-Val-Ile-His-Thr-EDANS (Bachem, no. M-2050; Dabcyl means the 4-(4-dimethylamino-phenylazo)-benzoyl group and EDANS means the amide with 5-[(2-aminoethyl)amino]-naphthalene-1-sulfonic acid) at a concentration of 10 μM for 2 h at room temperature in 0.05 M Tris buffer (pH 8) containing 0.1 M NaCl, 2.5 mM EDTA and 1.25 mg/ml bovine serum albumin. The increase in fluorescence, which is due to fluorescence resonance energy transfer, was recorded at an excitation wavelength of 330 nm and an emission wavelength of 485 nm in a microplate spectrofluorometer. Inhibitory concentrations IC50 were calculated from the percentage of inhibition of renin activity as a function of the concentration of the test compound. […] Representative IC50 values, which were determined with the compounds in the form of the obtained salt indicated in the examples above, are listed in Table 4.
For the molecule `Cc1c(F)cccc1Cc1c(-c2ccccc2)c2cccnn2c1C(=O)N1CCNCC1` [Example 9, [6-(3-Fluoro-2-methyl-benzyl)-5-phenyl-pyrrolo[1,2-b]pyridazin-7-yl]-piperazin-1-yl-methanone], the IC50 stood at 4.3 nM.
In the case of `CNC(=O)c1ccc2c(-c3ccccc3)c(Cc3cccc(F)c3C)c(C(=O)N3CCNCC3)n2c1` [Example 13, 2-(3-Fluoro-2-methyl-benzyl)-1-phenyl-3-(piperazine-1-carbonyl)-indolizine-6-carboxylic acid methylamide] it was 64 nM.
As to `Cc1c(F)cccc1Cc1c(-c2ccccc2)c2ccccn2c1C(=O)N1CCN[C@@H](CC(=O)NCc2cccnc2)C1` [Example 32], the 50% inhibitory concentration (IC50) was determined as 38 nM.
In the case of `CNC(=O)CC[C@H]1CN(C(=O)c2c(Cc3cccc(F)c3C)c(-c3ccccc3)c3ccccn23)CCN1` [Example 26] it was 230 nM.
In the case of `Cc1c(F)cccc1Cc1c(-c2ccccc2)c2ccccn2c1C(=O)N1CCN[C@@H](CO)C1` [Example 22], the IC50 worked out at 100 nM.
In the case of `Cc1c(F)cccc1Cc1c(-c2cccc(F)c2)c2ccccn2c1C(=O)N1CCNCC1` [Example 20, [2-(3-fluoro-2-methyl-benzyl)-1-(3-fluoro-phenyl)-indolizin-3-yl]-piperazin-1-yl-methanone] it was 3.4 nM.
Take `COC(=O)CCNC(=O)C[C@H]1CN(C(=O)c2c(Cc3cccc(F)c3C)c(-c3ccccc3)c3ccccn23)CCN1` [Example 30]: the half-maximal inhibitory concentration (IC50) was 31 nM.
Consider `Cc1c(F)cccc1Cc1c(-c2ccccc2)c2cc(O)cnn2c1C(=O)N1CCNCC1` [Example 10, [6-(3-Fluoro-2-methyl-benzyl)-3-hydroxy-5-phenyl-pyrrolo[1,2-b]pyridazin-7-yl]-piperazin-1-yl-methanone], for which the half-maximal inhibitory concentration (IC50) is 8.2 nM.
On to `Cc1cccc(C)c1Cc1c(-c2ccccc2)c2ccccn2c1C(=O)N1CCN[C@H](C)C1` [Example 17, [2-(2,6-Dimethyl-benzyl)-1-phenyl-indolizin-3-yl)-((R)-3-methyl-piperazin-1-yl)-methanone], for which the concentration for half-maximal inhibition (IC50) came out at 870 nM.
With `Cc1c(F)cccc1Cc1c(C(=O)N2CCN[C@@H](C)C2)c2ccccn2c1-c1ccccc1` [Example 15, [2-(3-Fluoro-2-methyl-benzyl)-3-phenyl-indolizin-1-yl)-((S)-3-methyl-piperazin-1-yl)-methanone] the figure was 76 nM; with `Cc1c(F)cccc1Cc1c(C(=O)N2CCNCC2)c2cc(Br)ccn2c1-c1ccccc1` [Example 12, [7-Bromo-2-(3-fluoro-2-methyl-benzyl)-3-phenyl-indolizin-1-yl]-piperazin-1-yl-methanone], 360 nM.
In the case of `Cc1c(F)cccc1Cc1c(-c2ccccc2)c2ccccn2c1C(=O)N1CCN[C@@H](CC(=O)NCC2CCOCC2)C1` [Example 6, 2-{(S)-4-[2-(3-Fluoro-2-methyl-benzyl)-1-phenyl-indolizine-3-carbonyl]-piperazin-2-yl}-N-(tetrahydropyran-4-ylmethyl)-acetamide] it was 2.6 nM.
In the case of `Cc1c(F)cccc1Cc1c(-c2ccccc2)c2ccccn2c1C(=O)N1CCN[C@@H](CC(=O)NCC(C)(C)C(N)=O)C1` [Example 7, 3-(2-{(S)-4-[2-(3-Fluoro-2-methyl-benzyl)-1-phenyl-indolizine-3-carbonyl]-piperazin-2-yl}-acetylamino)-2,2-dimethyl-propionamide] it was 2.6 nM.

The record behind these values is US8415336B2, “Cyclic (aza)indolizinecarboxamides, their preparation and their use as pharmaceuticals” (Sanofi, priority 2009, dated 2013).
